Ends that are not written are not given here.
system: human red blood cells; experiment: Hemolytic assay; assay type: cell-based; conditions: human RBCs in PBS, 37°C, 1 h; representative of 4 independent determinations

First: CC(C)C[C@H](NC(=O)[C@H](CCCCN)NC(=O)[C@H](C)NC(=O)[C@H](CC(C)C)NC(=O)[C@H](CCCCN)NC(=O)[C@H](CCCCN)NC(=O)[C@H](C)NC(=O)[C@H](CC(C)C)NC(=O)[C@H](CCCCN)NC(=O)[C@H](C)NC(=O)[C@H](CC(C)C)NC(=O)[C@@H](N)CCCCN)C(=O)N[C@@H](C)C(=O)N[C@@H](CCCCN)C(N)=O [PAP]
Second: GGHGLLKRIKTLL-NH2 [GGH–anoplin]
The “HD10 (peptide concentration that results in lysis of 10% red blood cells)” value of the first is higher: 64 μm for the first, 16 μm for the second.

For RAGLQFPVGRVHRLLRK-NH2 [sh-Buforin], the “HD10 (peptide concentration that results in lysis of 10% red blood cells)” value was 64 μm.

With GLLKRIKTLL-NH2 [Anoplin] the “HD10 (peptide concentration that results in lysis of 10% red blood cells)” value was greater than 64 μm.

— article PMC4440792 (ChemMedChem, 2014)
